According to US4867973A, “Antibody-therapeutic agent conjugates” (Cytogen Corporation, priority 1984, dated 1989):
Ends that are not written are not given here. Peptide text beside a SMILES is read from it. * marks the point of attachment. AMC = Cc1cc(=O)oc2cc(N*)ccc12; Boc = CC(C)(C)OC(=O)*

Assays:
Assay type in all cases: biochemical
trypsin [1] = experiment: Fluorescence assay of AMC release from peptide linker by trypsin; conditions: for Cleavage Rates, Trypsin: trypsin 0.1 ug/ml, peptide 5 uM
Experimental: (§1) The rates of cleavage for the peptide linker were measured by fluorescence quenching using a Perkin Elmer 650-10S fluorescence spectrometer (Perkin-Elmer Corporation, Norwalk, Conn.). The excitation and emission wavelengths were 380 nm and 460 nm, respectively and the temperature was maintained at 25° C. with a Lauda k-2/R circulating water bath (Brinkmann Instruments, Westbury, N.Y.).
(§2) The initial concentrations of Gly-Gly-Arg-AMC were determined by optical density, Σ^1M325 =16,000. The solutions were adjusted to 1 uM concentrations. One ml of the 1 uM solution in PBS, pH 7.4 was placed in a cuvette. The appropriate amounts of enzyme (1 ug/ml trypsin or 10 ug/ml urokinase) was then added at room temperature with stirring using a motor-driven syringe and the reaction kinetics were followed for several minutes. The fluorescence intensity of a known concentration of free AMC was established and used as a baseline to determine the change in units per nM/minute of free AMC in this fluorescence assay system.
(§3) In another experiment, the Gly-Gly-Arg-AMC concentration was 100 uM and the trypsin used at 100 ug/ml. In another embodiment of the present invention, the Gly-Gly-Arg-AMC was conjugated to oxidized dextran which can serve as a spacer as described in Section 5.4.3 (10,000 molecular weight) (Pharmacia Fine Chemicals, Piscataway, N.J.) by the methods of the present invention using a molar ratio of Gly-Gly-Arg-AMC to dextran of 58:1. Dextran-Gly-Gly-Arg-AMC was separated with a 6.5 ml Sephadex® G-25 column (Pharmacia Fine Chemicals, Piscataway, N.J.).
(§4) Peptide sequences that are analogs of complement components were cleaved by trypsin (0.1 ug/ml), urokinase (0.1 ug/ml), plasmin (1 ug/ml) and purified complement components C4,2 and C1s (40 ug/ml). The data in Table V compare the cleavage rates (nM/minute) of these sequences. The fluorescence assay described in Section 8 for cleavage of Gly-Gly-Arg-AMC was used here. Complement components were purified and assayed by the method of Tack and Prahl (Biochem., 1976, 15:4513-4521).

urokinase [2] = target: T1, urokinase (Homo sapiens, UniProt P00749); experiment: Fluorescence assay of AMC release from peptide linker by urokinase; conditions: urokinase 0.1 ug/ml; peptide 5 uM
Experimental: as §1, §2, §3, §4

plasmin = plasmin (Homo sapiens, UniProt P00747); experiment: Fluorescence assay of AMC release by plasmin; conditions: plasmin 1 ug/ml; peptide 5 uM
Experimental: as §4

[3] = target: T2, purified complement component C4,2 (Homo sapiens, UniProt P06681); experiment: Fluorescence assay of AMC release by purified complement component C4,2; conditions: 40 ug/ml enzyme; peptide 5 uM
T2 construct: from tissue
Experimental: as §4

[4] = target: T3, purified complement component C1s (Homo sapiens, UniProt P09871); experiment: Fluorescence assay of AMC release by purified complement component C1s; conditions: 10 ug/ml enzyme; peptide 5 uM
T3 construct: from tissue
T3 sequence (P09871 16-688): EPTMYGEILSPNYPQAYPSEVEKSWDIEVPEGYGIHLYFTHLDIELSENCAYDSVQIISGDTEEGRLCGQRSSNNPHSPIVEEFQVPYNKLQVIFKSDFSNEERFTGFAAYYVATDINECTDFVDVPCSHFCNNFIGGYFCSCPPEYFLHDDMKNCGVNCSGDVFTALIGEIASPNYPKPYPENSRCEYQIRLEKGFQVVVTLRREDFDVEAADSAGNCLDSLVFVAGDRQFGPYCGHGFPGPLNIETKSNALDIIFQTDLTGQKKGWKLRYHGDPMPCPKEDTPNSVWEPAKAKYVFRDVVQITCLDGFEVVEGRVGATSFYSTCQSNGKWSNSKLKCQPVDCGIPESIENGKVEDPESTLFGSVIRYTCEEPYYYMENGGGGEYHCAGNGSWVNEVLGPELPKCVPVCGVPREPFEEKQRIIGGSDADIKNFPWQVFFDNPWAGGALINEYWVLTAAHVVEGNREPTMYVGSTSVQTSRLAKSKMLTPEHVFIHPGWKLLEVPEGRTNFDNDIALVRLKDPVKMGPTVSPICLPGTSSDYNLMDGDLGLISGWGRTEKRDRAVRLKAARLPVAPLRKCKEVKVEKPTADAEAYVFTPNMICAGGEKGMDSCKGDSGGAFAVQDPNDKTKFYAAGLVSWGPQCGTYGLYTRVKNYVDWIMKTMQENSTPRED
Source text: The data in Table V compare the cleavage rates (nM/minute) of these sequences. The fluorescence assay described in Section 8 for cleavage of Gly-Gly-Arg-AMC was used here. Complement components were purified and assayed by the method of Tack and Prahl (Biochem., 1976, 15:4513-4521).

trypsin [5] = experiment: Release of 125I-Tyr from radiolabeled peptide by trypsin (agarose gel electrophoresis or TLC); conditions: trypsin 1 ug/ml; substrate 0.1 uM; 125I-Tyr release
Experimental: (§5) For the purposes of the present example, the tetrapeptide Glycine-Glycine-Arginine-Tyrosine was radiolabeled at the amino acid residue tyrosine with 125 Iodine (125 I) (Greenwood et al. 1963, Biochem. J. 88: 114-120). This radiolabeled compound is hereinafter referred to as Gly-Gly-Arg-Tyr* (wherein the * denotes ^125 I).
(§6) The peptide Gly-Gly-Arg-Tyr* was assayed for the release of the 125I labeled tyrosine residue by agarose gel electrophoresis or thin-layer chromatography (TLC, Sono and Asakura, 1974, Biochem 13:4386-4394). Briefly, appropriate amounts of enzyme were added to a reaction tube containing 0.1 uM Gly-Gly-Arg-Tyr in PBS, pH 7.4. The mixture was incubated at 37° C. for 30 minutes. Three ul of this reaction mixture were then applied to an agarose gel (1%) and run at high voltage (120 V/cm) in Barbitol Buffer, 0.025 M sodium diethylbarbituate HCl buffer, pH 8.6. Three ul of bromophenol blue solution was used as a marker to determine the end of the run. The agarose gel was then cut into sections and counted in a LKB 1271 gamma counter (LKB Instruments, Gaithersburg, Md.) to determine if the Tyr remained at the origin or migrated through the gel. Alternatively, samples were separated and identified by TLC as described supra. […] The plate was dried and divided into ten sections which were counted in a gamma counter. […]

urokinase [6] = target: T1, urokinase; experiment: Release of 125I-Tyr from radiolabeled peptide by urokinase (agarose gel electrophoresis or TLC); conditions: urokinase 10 ug/ml; substrate 0.1 uM; 125I-Tyr release
Experimental: as §5, §6

Chain of plasmin (P00747 581-810 limits assumed, species assumed): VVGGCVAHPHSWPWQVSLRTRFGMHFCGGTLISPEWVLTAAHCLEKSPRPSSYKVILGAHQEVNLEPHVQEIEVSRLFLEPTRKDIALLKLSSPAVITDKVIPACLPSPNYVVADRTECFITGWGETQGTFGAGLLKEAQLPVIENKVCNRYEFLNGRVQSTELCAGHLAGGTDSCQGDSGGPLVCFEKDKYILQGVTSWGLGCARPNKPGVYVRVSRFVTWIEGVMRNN
Chain of plasmin (P00747 97-580 partner limits assumed, species assumed): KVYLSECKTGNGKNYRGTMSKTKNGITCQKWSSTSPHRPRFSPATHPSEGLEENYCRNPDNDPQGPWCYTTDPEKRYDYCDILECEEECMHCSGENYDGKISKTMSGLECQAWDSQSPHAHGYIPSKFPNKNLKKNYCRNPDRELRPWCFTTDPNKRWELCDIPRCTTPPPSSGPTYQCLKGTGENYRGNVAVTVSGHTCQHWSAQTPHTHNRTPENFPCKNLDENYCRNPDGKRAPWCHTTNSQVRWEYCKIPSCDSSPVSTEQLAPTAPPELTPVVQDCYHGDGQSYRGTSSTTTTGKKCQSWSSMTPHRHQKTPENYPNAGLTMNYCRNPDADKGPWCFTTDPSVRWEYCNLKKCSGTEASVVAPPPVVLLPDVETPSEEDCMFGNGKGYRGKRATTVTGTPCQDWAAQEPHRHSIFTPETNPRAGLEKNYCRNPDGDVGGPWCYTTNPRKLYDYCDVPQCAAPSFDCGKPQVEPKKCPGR
T2 sequence (P06681 244-752 limits assumed): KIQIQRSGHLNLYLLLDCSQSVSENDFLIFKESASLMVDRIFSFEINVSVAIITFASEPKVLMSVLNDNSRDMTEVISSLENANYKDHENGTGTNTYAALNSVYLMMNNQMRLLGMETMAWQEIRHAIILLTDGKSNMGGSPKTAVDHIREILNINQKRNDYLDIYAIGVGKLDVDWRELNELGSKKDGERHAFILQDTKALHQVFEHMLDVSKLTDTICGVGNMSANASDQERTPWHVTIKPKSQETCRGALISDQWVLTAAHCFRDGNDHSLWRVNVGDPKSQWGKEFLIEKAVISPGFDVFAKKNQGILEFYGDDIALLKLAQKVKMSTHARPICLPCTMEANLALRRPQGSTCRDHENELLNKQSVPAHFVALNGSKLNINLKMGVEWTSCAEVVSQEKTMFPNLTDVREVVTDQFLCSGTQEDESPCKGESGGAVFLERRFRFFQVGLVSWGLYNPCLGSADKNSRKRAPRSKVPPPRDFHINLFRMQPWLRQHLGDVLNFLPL
T2 sequence (P0C0L4 20-675 partner limits assumed): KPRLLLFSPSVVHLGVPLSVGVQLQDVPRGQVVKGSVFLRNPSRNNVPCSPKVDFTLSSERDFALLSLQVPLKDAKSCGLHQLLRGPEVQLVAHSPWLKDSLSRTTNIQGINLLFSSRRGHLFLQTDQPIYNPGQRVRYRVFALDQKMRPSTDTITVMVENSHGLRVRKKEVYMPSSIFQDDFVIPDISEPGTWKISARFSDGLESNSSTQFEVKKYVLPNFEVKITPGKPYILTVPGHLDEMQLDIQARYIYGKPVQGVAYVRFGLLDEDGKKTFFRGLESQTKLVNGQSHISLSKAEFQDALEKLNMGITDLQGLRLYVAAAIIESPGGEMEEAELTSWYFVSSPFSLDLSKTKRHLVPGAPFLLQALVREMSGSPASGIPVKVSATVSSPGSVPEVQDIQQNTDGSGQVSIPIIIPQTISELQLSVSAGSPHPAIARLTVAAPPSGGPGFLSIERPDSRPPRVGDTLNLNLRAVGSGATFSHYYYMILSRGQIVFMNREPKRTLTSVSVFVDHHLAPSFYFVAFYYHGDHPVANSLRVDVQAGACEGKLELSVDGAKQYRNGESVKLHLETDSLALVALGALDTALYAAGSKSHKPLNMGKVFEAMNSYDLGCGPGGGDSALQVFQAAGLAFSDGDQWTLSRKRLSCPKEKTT
T2 sequence (P0C0L4 757-1446 partner limits assumed): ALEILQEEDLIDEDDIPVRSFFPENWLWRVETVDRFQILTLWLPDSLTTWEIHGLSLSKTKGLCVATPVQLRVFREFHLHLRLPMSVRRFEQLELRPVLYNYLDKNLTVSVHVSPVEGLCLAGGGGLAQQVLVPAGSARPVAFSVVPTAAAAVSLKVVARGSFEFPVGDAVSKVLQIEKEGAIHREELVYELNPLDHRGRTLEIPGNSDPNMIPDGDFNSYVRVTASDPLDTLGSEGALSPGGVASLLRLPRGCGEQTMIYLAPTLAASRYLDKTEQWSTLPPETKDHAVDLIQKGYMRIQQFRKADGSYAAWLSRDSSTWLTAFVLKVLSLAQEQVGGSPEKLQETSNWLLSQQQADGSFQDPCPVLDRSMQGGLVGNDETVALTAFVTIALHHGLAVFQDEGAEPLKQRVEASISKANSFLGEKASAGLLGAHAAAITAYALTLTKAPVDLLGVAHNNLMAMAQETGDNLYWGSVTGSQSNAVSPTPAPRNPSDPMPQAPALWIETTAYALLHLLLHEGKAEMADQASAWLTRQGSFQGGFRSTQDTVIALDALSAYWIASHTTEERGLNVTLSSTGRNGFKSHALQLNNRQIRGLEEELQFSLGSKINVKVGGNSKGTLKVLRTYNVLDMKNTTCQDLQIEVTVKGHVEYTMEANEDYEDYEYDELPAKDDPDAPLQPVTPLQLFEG
T2 sequence (P0C0L4 1454-1744 partner limits assumed): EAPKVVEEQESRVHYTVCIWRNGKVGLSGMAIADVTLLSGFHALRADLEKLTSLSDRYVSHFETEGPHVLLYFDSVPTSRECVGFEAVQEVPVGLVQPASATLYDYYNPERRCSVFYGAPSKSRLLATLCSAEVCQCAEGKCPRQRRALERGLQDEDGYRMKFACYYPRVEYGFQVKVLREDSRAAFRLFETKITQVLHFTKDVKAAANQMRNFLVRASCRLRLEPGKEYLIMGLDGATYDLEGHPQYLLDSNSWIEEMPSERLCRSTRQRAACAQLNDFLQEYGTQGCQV

| Compound | Cleavage Rates, Trypsin (trypsin [1]) | Cleavage Rates, Urokinase (urokinase [2]) | further results |
| --- | --- | --- | --- |
| Cc1cc(=O)oc2cc(NC(=O)[C@H](CCCNC(=N)N)NC(=O)[C@H](CCCNC(=N)N)NC(=O)[C@H](CCC(=O)O)NC(=O)OC(C)(C)C)ccc12 [Boc-Glu-Arg-Arg-AMC] (Boc-Glu-Arg-Arg-{AMC}) | 3.7 nM/min | 0 nM/min |  |
| Cc1cc(=O)oc2cc(NC(=O)[C@H](CCCNC(=N)N)NC(=O)CNC(=O)[C@H](CC(C)C)NC(=O)OC(C)(C)C)ccc12 [Boc-Leu-Gly-Arg-AMC, Boc-leu-gly-arg-7-amino-4-methylcoumarin] (Boc-Leu-Gly-Arg-{AMC}) | 750 nM/min | 3.7 nM/min |  |
| Cc1cc(=O)oc2cc(NC(=O)[C@H](CCCNC(=N)N)NC(=O)[C@H](CO)NC(=O)[C@H](Cc3ccccc3)NC(=O)OC(C)(C)C)ccc12 [Boc-Phe-Ser-Arg-AMC] (Boc-Phe-Ser-Arg-{AMC}) | 17 nM/min | 0.044 nM/min |  |
| Cc1cc(=O)oc2cc(NC(=O)[C@H](CCCNC(=N)N)NC(=O)CNC(=O)[C@@H](NC(=O)OC(C)(C)C)C(C)C)ccc12 [Boc-Val-Gly-Arg-AMC] (Boc-Val-Gly-Arg-{AMC}) | 720 nM/min | 2.8 nM/min |  |
| Cc1cc(=O)oc2cc(NC(=O)[C@H](CCCNC(=N)N)NC(=O)[C@@H]3CCCN3C(=O)[C@@H](NC(=O)OC(C)(C)C)C(C)C)ccc12 [Boc-Val-Pro-Arg-AMC] (Boc-Val-Pro-Arg-{AMC}) | 3.8 nM/min | 0 nM/min |  |
| Cc1cc(=O)oc2cc(NC(=O)[C@H](CCCNC(=N)N)NC(=O)CNC(=O)[C@@H](N)CCC(=O)O)ccc12 [Glu-Gly-Arg-AMC] (H-Glu-Gly-Arg-{AMC}) | 140 nM/min | 35 nM/min |  |
| Cc1cc(=O)oc2cc(NC(=O)[C@H](CCCCN)NC(=O)[C@H](CCCCN)NC(=O)[C@@H](N)CCC(=O)O)ccc12 [Glu-Lys-Lys-AMC] (H-Glu-Lys-Lys-{AMC}) | 0.62 nM/min | 0 nM/min |  |
| Cc1cc(=O)oc2cc(NC(=O)[C@H](CCCNC(=N)N)NC(=O)CNC(=O)CN)ccc12 [Gly--Gly--Arg--AMC, Gly-Gly-Arg-AMC] | 450 nM/min | 27 nM/min | Cleavage Rates Released Group, Trypsin (trypsin [1]; trypsin 100 ug/ml, substrate 100 uM): 20,000 nM/min.; Cleavage Rates, Plasmin (plasmin): 0.005 nM/min; Cleavage Rates, complement component (column head drawing 17) [3]: 0.9 to 1.2 nM/min; Cleavage Rates, complement component (column head drawing 18) [4]: 0.9 to 1.2 nM/min |
| Cc1cc(=O)oc2cc(NC(=O)[C@H](CCCNC(=N)N)NC(=O)[C@H](Cc3ccccc3)NC(=O)[C@@H]3CCCN3)ccc12 [Pro-Phe-Arg-AMC] (H-Pro-Phe-Arg-{AMC}) | 0 nM/min | 0 nM/min |  |
| Glycine-Glycine-Arginine-Tyrosine [Gly--Gly--Arg--Tyr*] |  |  | Cleavage Rates Released Group, Trypsin (trypsin [5]): 4 nM/min; Cleavage Rates Released Group, Urokinase (urokinase [6]): .01 nM/min |
| PGRVVGY [Pro--Gly--Arg--Val--Val--Gly--Tyr*, plasminogen analog] |  |  | Cleavage Rates Released Group, Trypsin (trypsin [5]): 3 nM/min; Cleavage Rates Released Group, Urokinase (urokinase [6]): .01 nM/min |
